Reference: PubChem BioAssay (NCI)
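48-hour exposure; five concentrations; linearly interpolated endpoints. TGI is the concentration that stops growth completely.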

What was measured:
Experiment in all cases: DTP human tumour cell line panel, 48 h
[1] = tested on: EKVX NSCLC
[2] = tested on: MDA-MB-435
[3] = tested on: CCRF-CEM leukemia
[4] = tested on: MDA-MB-231 breast
[5] = tested on: SK-OV-3 ovarian
[6] = tested on: TK-10 renal
[7] = tested on: HCC-2998 colon
[8] = tested on: HT29 colon
[9] = tested on: SW-620 colon
[10] = tested on: NCI-H460 lung
[11] = tested on: PC-3 prostate
[12] = tested on: HOP-92 NSCLC
[13] = tested on: HS 578T breast
[14] = tested on: OVCAR-8 ovarian
[15] = tested on: NCI-H522 lung
[16] = tested on: HCT-15 colon
[17] = tested on: HL-60(TB) leukemia
[18] = tested on: OVCAR-5 ovarian
[19] = tested on: MOLT-4 leukemia
[20] = tested on: SN12C renal
[21] = tested on: UACC-257 melanoma
[22] = tested on: OVCAR-4 ovarian
[23] = tested on: CAKI-1 renal
[24] = tested on: IGROV1 ovarian
[25] = tested on: RPMI-8226 leukemia
[26] = tested on: SR leukemia
[27] = tested on: DU-145 prostate
[28] = tested on: HCT-116 colon
[29] = tested on: KM12 colon
[30] = tested on: COLO 205 colon
[31] = tested on: MALME-3M melanoma
[32] = tested on: SK-MEL-5 melanoma
[33] = tested on: BT-549 breast
[34] = tested on: LOX IMVI melanoma
[35] = tested on: SK-MEL-28 melanoma
[36] = tested on: MCF7 breast
[37] = tested on: RXF 393 renal
[38] = tested on: A498 renal
[39] = tested on: UACC-62 melanoma
[40] = tested on: M14 melanoma
[41] = tested on: SF-539 CNS
[42] = tested on: OVCAR-3 ovarian
[43] = tested on: SF-268 CNS
[44] = tested on: ACHN renal
[45] = tested on: 786-0 renal
[46] = tested on: SNB-75 CNS
[47] = tested on: NCI/ADR-RES ovarian
[48] = tested on: K-562 leukemia
[49] = tested on: T-47D breast
[50] = tested on: NCI-H226 lung
[51] = tested on: MDA-N
[52] = tested on: SF-295 CNS
[53] = tested on: SK-MEL-2 melanoma
[54] = tested on: U251 CNS
[55] = tested on: A549 NSCLC
[56] = tested on: UO-31 renal
[57] = tested on: SNB-19 CNS
[58] = tested on: NCI-H23 lung
[59] = tested on: HOP-62 NSCLC

SMILES: C=C(C(=O)O)[C@@H]1C[C@@H](OC(C)=O)[C@]2(C)CC/C=C(\C)CCC[C@H](C)[C@H](O)[C@@H]1O2
- TGI [1]: > 100 µM
- TGI [2]: 59.1 µM
- TGI [3]: 73.4 µM
- TGI [4]: > 100 µM
- TGI [5]: > 100 µM
- TGI [6]: > 100 µM
- TGI [7]: > 100 µM
- TGI [8]: > 100 µM
- TGI [9]: > 100 µM
- TGI [10]: > 100 µM
- TGI [11]: > 100 µM
- TGI [12]: > 100 µM
- TGI [13]: > 100 µM
- TGI [14]: > 100 µM
- TGI [15]: 48.4 µM
- TGI [16]: > 100 µM
- TGI [17]: 57.4 µM
- TGI [18]: > 100 µM
- TGI [19]: 72.1 µM
- TGI [20]: > 100 µM
- TGI [21]: > 100 µM
- TGI [22]: > 100 µM
- TGI [23]: > 100 µM
- TGI [24]: > 100 µM
- TGI [25]: > 100 µM
- TGI [26]: 65.1 µM
- TGI [27]: > 100 µM
- TGI [28]: > 100 µM
- TGI [29]: > 100 µM
- TGI [30]: > 100 µM
- TGI [31]: > 100 µM
- TGI [32]: > 100 µM
- TGI [33]: > 100 µM
- TGI [34]: > 100 µM
- TGI [35]: > 100 µM
- TGI [36]: > 100 µM
- TGI [37]: 65.9 µM
- TGI [38]: > 100 µM
- TGI [39]: > 100 µM
- TGI [40]: > 100 µM
- TGI [41]: 35.7 µM
- TGI [42]: > 100 µM
- TGI [43]: > 100 µM
- TGI [44]: > 100 µM
- TGI [45]: > 100 µM
- TGI [46]: > 100 µM
- TGI [47]: > 100 µM
- TGI [48]: > 100 µM
- TGI [49]: > 100 µM
- TGI [50]: > 100 µM
- TGI [51]: 64.2 µM
- TGI [52]: > 100 µM
- TGI [53]: > 100 µM
- TGI [54]: > 100 µM
- TGI [55]: > 100 µM

SMILES: O=C(c1ccccc1)c1c(-c2ccccc2)n(-c2ccccc2)[nH]c(=O)c1=O
- TGI [1]: > 100 µM
- TGI [2]: > 100 µM
- TGI [3]: 35.5 µM
- TGI [4]: 84.9 µM
- TGI [5]: > 100 µM
- TGI [6]: > 100 µM
- TGI [7]: > 100 µM
- TGI [8]: > 100 µM
- TGI [10]: > 100 µM
- TGI [11]: 32.9 µM
- TGI [12]: > 100 µM
- TGI [13]: 62.1 µM
- TGI [14]: > 100 µM
- TGI [15]: 38.3 µM
- TGI [16]: > 100 µM
- TGI [17]: 85 µM
- TGI [18]: > 100 µM
- TGI [19]: > 100 µM
- TGI [20]: > 100 µM
- TGI [56]: > 100 µM
- TGI [57]: > 100 µM
- TGI [21]: > 100 µM
- TGI [22]: > 100 µM
- TGI [23]: > 100 µM
- TGI [24]: > 100 µM
- TGI [25]: > 100 µM
- TGI [26]: > 100 µM
- TGI [58]: > 100 µM
- TGI [27]: > 100 µM
- TGI [28]: > 100 µM
- TGI [29]: > 100 µM
- TGI [30]: > 100 µM
- TGI [31]: > 100 µM
- TGI [32]: > 100 µM
- TGI [33]: 91.7 µM
- TGI [34]: > 100 µM
- TGI [35]: > 100 µM
- TGI [36]: > 100 µM
- TGI [38]: > 100 µM
- TGI [39]: 75.5 µM
- TGI [40]: > 100 µM
- TGI [41]: 46.8 µM
- TGI [42]: > 100 µM
- TGI [43]: > 100 µM
- TGI [44]: > 100 µM
- TGI [45]: > 100 µM
- TGI [59]: > 100 µM
- TGI [47]: > 100 µM
- TGI [48]: 81.4 µM
- TGI [49]: > 100 µM
- TGI [50]: > 100 µM
- TGI [51]: > 100 µM
- TGI [52]: > 100 µM
- TGI [53]: 65.7 µM
- TGI [54]: > 100 µM
- TGI [55]: > 100 µM

SMILES: O=C(CCc1cc(O)ccc1O)OCCc1ccccc1
- TGI [1]: 61.9 µM
- TGI [2]: 24.5 µM
- TGI [3]: 1.94 µM
- TGI [4]: 42.7 µM
- TGI [5]: > 100 µM
- TGI [6]: 27.8 µM
- TGI [7]: > 80.7 µM
- TGI [8]: > 100 µM
- TGI [9]: 42.2 µM
- TGI [10]: > 100 µM
- TGI [11]: 18.5 µM
- TGI [12]: 13 µM
- TGI [13]: 67.7 µM
- TGI [14]: > 57.6 µM
- TGI [15]: 1.78 µM
- TGI [16]: 27.2 µM
- TGI [17]: 5.92 µM
- TGI [18]: > 52.1 µM
- TGI [19]: > 21 µM
- TGI [20]: 44.9 µM
- TGI [56]: 18.7 µM
- TGI [57]: > 100 µM
- TGI [21]: 28.9 µM
- TGI [22]: 32.5 µM
- TGI [23]: 27.2 µM
- TGI [24]: 22.3 µM
- TGI [25]: > 23.2 µM
- TGI [26]: > 100 µM
- TGI [58]: > 90.8 µM
- TGI [27]: 41.2 µM
- TGI [28]: 27.3 µM
- TGI [29]: > 80.6 µM
- TGI [30]: 22.6 µM
- TGI [31]: 23.5 µM
- TGI [32]: > 55.6 µM
- TGI [33]: 26.6 µM
- TGI [35]: 78.7 µM
- TGI [36]: 57.3 µM
- TGI [37]: 25.9 µM
- TGI [38]: > 100 µM
- TGI [39]: 33.9 µM
- TGI [40]: > 61.6 µM
- TGI [41]: 14.9 µM
- TGI [43]: > 50.5 µM
- TGI [44]: 18.4 µM
- TGI [45]: 24.5 µM
- TGI [59]: > 100 µM
- TGI [46]: > 100 µM
- TGI [47]: > 100 µM
- TGI [48]: 30.9 µM
- TGI [49]: 64.8 µM
- TGI [50]: > 76.3 µM
- TGI [51]: 26.9 µM
- TGI [52]: > 100 µM
- TGI [53]: > 100 µM
- TGI [54]: 29.1 µM
- TGI [55]: > 100 µM

SMILES: [N-]=[N+]=Nc1cc(=O)n2c3c(cccc13)CCC2
- TGI [1]: > 100 µM
- TGI [2]: > 100 µM
- TGI [3]: > 100 µM
- TGI [4]: > 100 µM
- TGI [6]: > 100 µM
- TGI [7]: > 100 µM
- TGI [8]: > 100 µM
- TGI [9]: > 100 µM
- TGI [10]: > 100 µM
- TGI [11]: > 100 µM
- TGI [12]: > 100 µM
- TGI [13]: > 100 µM
- TGI [14]: > 100 µM
- TGI [15]: > 100 µM
- TGI [16]: > 100 µM
- TGI [17]: > 100 µM
- TGI [19]: > 100 µM
- TGI [20]: > 100 µM
- TGI [56]: > 100 µM
- TGI [21]: > 100 µM
- TGI [22]: > 100 µM
- TGI [24]: > 100 µM
- TGI [25]: > 100 µM
- TGI [26]: > 100 µM
- TGI [58]: > 100 µM
- TGI [27]: > 100 µM
- TGI [28]: > 100 µM
- TGI [29]: > 100 µM
- TGI [30]: > 100 µM
- TGI [31]: > 100 µM
- TGI [33]: > 100 µM
- TGI [34]: > 100 µM
- TGI [35]: > 100 µM
- TGI [36]: > 100 µM
- TGI [37]: > 100 µM
- TGI [38]: > 100 µM
- TGI [39]: > 100 µM
- TGI [40]: > 100 µM
- TGI [41]: > 100 µM
- TGI [42]: > 100 µM
- TGI [43]: > 100 µM
- TGI [44]: > 100 µM
- TGI [45]: > 100 µM
- TGI [59]: > 100 µM
- TGI [46]: > 100 µM
- TGI [47]: > 100 µM
- TGI [48]: > 100 µM
- TGI [49]: > 100 µM
- TGI [50]: > 100 µM
- TGI [51]: > 100 µM
- TGI [52]: > 100 µM
- TGI [54]: > 100 µM
- TGI [55]: > 100 µM
